Experimental data from patent US4057644A, “Active derivatives of methylamine in therapeutic compositions and methods of use” (priority 1976, dated 1977).
Where two headings read alike, the source gives them in different places.

What was measured:
[1] = test system: reserpine-induced catatonia; experiment: Inhibition of reserpine-induced catatonia; assay type: in vivo, rat (male, OFA strain); conditions: rat, oral
Procedure: Ater sufficient doses of reserpine have been administered to the rat, a series of symptoms occur, more particularly ptosis, catatonia and a drop in central temperature. These symptoms are caused by the depletion of the intrangranular reserve pool of biogenetic amines at the synaptic terminals.
An oral dose of the compound to be studied in aqueous solution was administered to batches of 10 male rats of the OFA strain weighing about 150 to 200 g. Thirty minutes later a dose of 5 mg/kg of reserpine was given by intraperitoneal route. Three hours after the injection of reserpine, the animals were suspended by the four paws to a horizontally stretched wire fixed at 15 cm from the ground. The catatonic animals were those which maintained the position so given for at least 30 seconds. […] The maximum score was therefore 10 per batch. An identical trial was undertaken with control animals which received reserpine but none of the compounds being studied.

in vivo = conditions: mouse, po
[2] = test system: neuroleptic-induced catatonia (prochlorperazine); experiment: Inhibition of neuroleptic-induced catatonia; assay type: in vivo, rat (male, OFA strain); conditions: rat, oral; for activity compared with amantadine (neuroleptic-induced catatonia): versus amantadine
Procedure: The blocking of dopaminergic receptors by neuroleptics in the extra-pyramidal system induces catatonia in the rat. Catatonia is differentiated from sedative properties by means of the test used hereabove for reserpine-induced catatonia. The same system of scoring was also employed in the present case.
An oral dose of the compound to be studied in aqueous solution was administered to batches of 10 male rats of the OFA strain weighing about 150 to 200 g.
Three hours after the injection of this latter compound, catatonia was measured. An identical trial was also carried out with control animals which received prochlorperazine but none of the compounds under study.

mice = conditions: for Index LD50/ED100: LD50 mice oral / dose giving 100% inhibition of catatonia; for Index LD50/ED20-30: LD50 mice oral / dose giving 20 to 30% inhibition of catatonia
[3] = test system: norepinephrine effects on arterial pressure and nictitating membrane; experiment: Influence on peripheral noradrenergic phenomena (arterial pressure, nictitating membrane); conditions: cat
[4] = test system: tremorine-induced cholinergic effects; experiment: Anti-tremorine test; assay type: in vivo, mice (male, OF1 strain); parameters: key to central cholinergic effects score (normal and provoked tremor): 0: no action; 1: slight action; 2: average action; 3: strong action; 4: very strong action
Procedure: When injected into mice, tremorine produces peripheral effects i.e. weeping, sweating, salivation and diarrhoea and central effects i.e. tremor and akinesia. Such effects are due to an increase in the amount of intracerebral acetylcholine and serotonine.
Male mice of the OF1 strain weighing about 22 g were divided into batches of 10. […] Thirty minutes later a dose of 10 mg/kg of tremorine was injected by intraperitoneal route and, at different times after this injection, note was taken of the cholinergic effects on each animal in accordance with the following scale: […]

[5] = test system: norepinephrine effects on arterial pressure and nictitating membrane; conditions: in vivo, iv
electrocardiogram = experiment: Electrocardiogram; assay type: in vivo; conditions: dog, injected, 5 mg/kg
[6] = J. Amer. Chem. Soc., 71, 3352 (1949); cited from earlier work
[7] = J. Amer. Chem. Soc., 71, 3352 (1949); cited from earlier work; remark: listed apart in the source
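Throughout, for Index LD50/ED100: LD50 part of every column derived from compounds dosed in aqueous solution, deaths followed over a 10-day observation period after dosing.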
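Throughout, for Index LD50/ED20-30: LD50 part of every column derived from compounds dosed in aqueous solution, deaths followed over a 10-day observation period after dosing.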
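Throughout, for LD50: LD50 part of every column derived from compounds dosed in aqueous solution, deaths followed over a 10-day observation period after dosing.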

Which results are given for `C#CCN(CC#C)C(CCC)(CCC)CCC` [Compound 39, N,n-dipropargyl-1,1-di-n-propyl-n-butylamine]?
Inhibition of reserpine-induced catatonia ([1]; 15 mg/kg): 2 (represents 50% inhibition of catatonia in comparison with the controls (namely a score of 5 per studied batch)); LD50 at 240 h (in vivo): > 150 mg/kg

With `CCCC(CCC)(CCC)NC` [Compound 27, N-methyl-1,1-di-n-propyl-n-butylamine] as the compound, how does the “Inhibition of the neuroleptic-induced catatonia” value ([2]; 6 mg/kg) read?
The value was 3 (represents 70 to 80% inhibition of catatonia in comparison with the controls (namely a score of 2 or 3 per studied batch)).

And the LD50 at 240 h (in vivo)?
The LD50 at 240 h was 100 mg/kg.

And the “Index LD50/ED100” value (mice)?
The value was 16.5.

Which “Inhibition of reserpine-induced catatonia” value ([1]; 6.5 mg/kg) does the source give for `CCCC(CCC)(CCC)NC(C)C` [Compound 34, N-isopropyl-1,1-di-n-propyl-n-butylamine] here?
The value was 2 (represents 50% inhibition of catatonia in comparison with the controls (namely a score of 5 per studied batch)).

What about the “Index LD50/ED100” value (mice) of the same compound?
Its value is 21.6.

With `CCCC(CCC)(CCC)N(CCO)CCO` [Compound 44, N,n-bis-(2-Hydroxyethyl)-1,1-di-n-propyl-n-butylamine] as the compound, how does the “Inhibition of the neuroleptic-induced catatonia” value ([2]; 15 mg/kg) read?
Its value is 1 (represents 20 to 30% inhibition of catatonia in comparison with the controls (namely a score of 7 to 8 per studied batch)).

Which LD50 at 240 h (in vivo) does the source give for `C#CCNC(CCC)(CCC)CCC` [Compound 36, N-propargyl-1,1-di-n-propyl-n-butylamine] here?
Its LD50 at 240 h is greater than 150 mg/kg.

And the “Index LD50/ED20-30” value (mice)?
Its value is greater than 25.

With `CCCC(CCC)(CCC)NCCO` [Compound 43, N-(2-hydroxyethyl)-1,1-di-n-propyl-n-butylamine] as the compound, how does the “Inhibition of the neuroleptic-induced catatonia” value ([2]; 6.5 mg/kg) read?
Its value is 1 (represents 20 to 30% inhibition of catatonia in comparison with the controls (namely a score of 7 to 8 per studied batch)).

What about the LD50 at 240 h (in vivo) of the same compound?
The LD50 at 240 h was 150 mg/kg.

And the “Index LD50/ED20-30” value (mice)?
The value was 23.

Which “Inhibition of the neuroleptic-induced catatonia” value ([2]; 20 mg/kg) does the source give for `CCCC(N)(CC)CC(C)C` (stereo not shown) [Compound 3, 1-Ethyl-1-isobutyl-n-butylamine] here?
Its value is 3 (represents 70 to 80% inhibition of catatonia in comparison with the controls (namely a score of 2 or 3 per studied batch)).

For `CCCC(CCC)(CC(C)C)N(C)C` [Compound 37, N,n-dimethyl-1-n-propyl-1-isobutyl-n-butylamine], which LD50 at 240 h (in vivo) is on record?
The LD50 at 240 h was 110 mg/kg.

With `CCCC(CCC)(CCC)N(C)CC` [Compound 38, N-methyl-N-ethyl-1,1-di-n-propyl-n-butylamine] as the compound, how does the “Inhibition of reserpine-induced catatonia” value ([1]; 6.5 mg/kg) read?
The value was 2 (represents 50% inhibition of catatonia in comparison with the controls (namely a score of 5 per studied batch)).

What about the LD50 at 240 h (in vivo) of the same compound?
Its LD50 at 240 h is greater than 120 mg/kg.

Which results are given for `CCCC(N)(CCC)CC(C)C` [Compound 5, 1-n-Propyl-1-isobutyl-n-butylamine]?
activity compared with amantadine (neuroleptic-induced catatonia) [2]: five times more active; Inhibition of reserpine-induced catatonia ([1]; 20 mg/kg): 2 (represents 50% inhibition of catatonia in comparison with the controls (namely a score of 5 per studied batch))

Which results are given for `C=NC(CCC)(CCC)CCC` [Compound 41]?
LD50 at 240 h (in vivo): > 150 mg/kg; Index LD50/ED100 (mice): 27

Which results are given for `CCCC(CCC)(NC)C(C)C` [Compound 30, N-methyl-1-n-propyl-1-isopropyl-n-butylamine]?
Inhibition of the neuroleptic-induced catatonia ([2]; 6 mg/kg): 3 (represents 70 to 80% inhibition of catatonia in comparison with the controls (namely a score of 2 or 3 per studied batch)); LD50 at 240 h (in vivo): > 150 mg/kg; Index LD50/ED100 (mice): > 25

Which results are given for `C=CCC(CCC)(CCC)NC` [Compound 32, N-methyl-1-n-propyl-1-alkyl-n-butylamine]?
Inhibition of reserpine-induced catatonia ([1]; 5 mg/kg): 2 (represents 50% inhibition of catatonia in comparison with the controls (namely a score of 5 per studied batch)); LD50 at 240 h (in vivo): 170 mg/kg

Which results are given for `NC12CC3CC(CC(C3)C1)C2` [Amantadine, 1-amino-adamantane]?
own effect on contractile reactions of the nictitating membrane [3]: stimulates the contractile reactions of the nictitating membrane; potentiation of exogenous norepinephrine / peripheral adrenergic effects [3]: potentiates the peripheral adrenergic effects; potentiation of the effects of the electric stimulation [3]: does not potentiate; central cholinergic effects score (normal and provoked tremor) ([4]; 40 mg/kg oral, 20, 30 and 40 minutes after tremorine, printed as identical results): 4; antitremorine properties ([4]; mice, oral): devoid of antitremorine properties; dose from which exogenous norepinephrine is potentiated ([5]; cat): ≥ 1 mg/kg; dose from which ganglioplegic properties are shown ([5]; cat): ≥ 5 mg/kg; Contractile reaction of the nictitating membrane with electric stimulation ([5]; 0.1 mg/kg): 20 mm; Contractile reaction of the nictitating membrane without electric stimulation ([5]; 0.1 mg/kg): 0 mm; Increase in arterial pressure after injection of norepinephrine ([5]; 0.1 mg/kg): 29 mm Hg; Contractile reaction of the nictitating membrane with electric stimulation ([5]; 1 mg/kg): 20 mm; Contractile reaction of the nictitating membrane without electric stimulation ([5]; 1 mg/kg): 3 mm; Increase in arterial pressure after injection of norepinephrine ([5]; 1 mg/kg): 35 mm Hg; Contractile reaction of the nictitating membrane with electric stimulation ([5]; 3 mg/kg): 16 mm; Contractile reaction of the nictitating membrane without electric stimulation ([5]; 3 mg/kg): 4.4 mm; Increase in arterial pressure after injection of norepinephrine ([5]; 3 mg/kg): 35 mm Hg; Contractile reaction of the nictitating membrane with electric stimulation ([5]; 5 mg/kg): 10 mm; Contractile reaction of the nictitating membrane without electric stimulation ([5]; 5 mg/kg): 5.9 mm; Increase in arterial pressure after injection of norepinephrine ([5]; 5 mg/kg): 59 mm Hg; Contractile reaction of the nictitating membrane with electric stimulation ([5]; 10 mg/kg): 4 mm; Contractile reaction of the nictitating membrane without electric stimulation ([5]; 10 mg/kg): 7.5 mm; Increase in arterial pressure after injection of norepinephrine ([5]; 10 mg/kg): 57 mm Hg; effect on the electrocardiogram / cardiac rhythm (electrocardiogram): provokes cardiac arrhythmia due to ventricular extrasystoles

With `CCCC(N)(CC)CCC` [Compound 2, 1-Ethyl-1-n-propyl-n-butylamine] as the compound, how does the “Inhibition of the neuroleptic-induced catatonia” value ([2]; 5 mg/kg) read?
Its value is 1 (represents 20 to 30% inhibition of catatonia in comparison with the controls (namely a score of 7 to 8 per studied batch)).

What about the “Index LD50/ED20-30” value (mice) of the same compound?
Its value is 30.

With `CCCC(C)(N)CC(C)CC` (stereo not shown) [Compound 6, 1,3-Dimethyl-1-n-propyl-n-pentylamine] as the compound, how does the “Index LD50/ED20-30” value (mice) read?
The value was greater than 25.

Which LD50 at 240 h (in vivo) does the source give for `CC=NC(CCC)(CCC)CCC` [Compound 42, N-ethylidene-1,1-di-n-propyl-n-butylamine] here?
Its LD50 at 240 h is 120 mg/kg.

What about the “Index LD50/ED100” value (mice) of the same compound?
The value was 20.

With `CCCCCC(C)(N)CCC` (stereo not shown) [Compound 9, 1-Methyl-1-n-propyl-n-hexylamine] as the compound, how does the “Index LD50/ED20-30” value (mice) read?
Its value is 87.

What does the source list for `CCCCC(N)(CCCC)CCCC` [Compound 12, 1,1-Di-n-butyl-n-pentylamine]?
toxicity versus the corresponding trialkylethylamines [6]: more toxic; spasmolytic activity versus the corresponding trialkylethylamines [7]: less spasmolytic; Index LD50/ED20-30 (mice): 25

Which results are given for `C=CCNC(CCC)(CCC)CCC` [Compound 35, N-allyl-1,1-di-n-propyl-n-butylamine]?
Inhibition of reserpine-induced catatonia ([1]; 6 mg/kg): 2 (represents 50% inhibition of catatonia in comparison with the controls (namely a score of 5 per studied batch)); LD50 at 240 h (in vivo): 130 mg/kg; Index LD50/ED100 (mice): 21

What does the source list for `CCCC(CCC)(CCC)N1CCC1` [Compound 29, N,n-trimethylene-1,1-di-n-propyl-n-butylamine]?
LD50 at 240 h (in vivo): 65 mg/kg; Index LD50/ED100 (mice): 10.8

For `CCCC(CCC)(CCC)NCCCO` [Compound 45, N-(3-hydroxy-n-propyl)-1,1-di-n-propyl-n-butylamine], which “Inhibition of reserpine-induced catatonia” value ([1]; 14 mg/kg) is on record?
The value was 2 (represents 50% inhibition of catatonia in comparison with the controls (namely a score of 5 per studied batch)).

What about the LD50 at 240 h (in vivo) of the same compound?
The LD50 at 240 h was 140 mg/kg.

Which results are given for `CCCC(CCC)(CCC)N1CC1` [Compound 40, N,n-ethylene-1,1-di-n-propyl-n-butylamine]?
Inhibition of the neuroleptic-induced catatonia ([2]; 6 mg/kg): 1 (represents 20 to 30% inhibition of catatonia in comparison with the controls (namely a score of 7 to 8 per studied batch)); Inhibition of the neuroleptic-induced catatonia ([2]; 12 mg/kg): 3 (represents 70 to 80% inhibition of catatonia in comparison with the controls (namely a score of 2 or 3 per studied batch)); Inhibition of reserpine-induced catatonia ([1]; 6 mg/kg): 2 (represents 50% inhibition of catatonia in comparison with the controls (namely a score of 5 per studied batch)); LD50 at 240 h (in vivo): > 150 mg/kg; Index LD50/ED20-30 (mice): > 25

With `CCCC(CCC)(CCC)N1CCOCC1` [Compound 46, N,n-(3-oxyapentamethylene)-1,1-di-n-propyl-n-butylamine] as the compound, how does the LD50 at 240 h (in vivo) read?
Its LD50 at 240 h is 250 mg/kg.

What about the “Index LD50/ED20-30” value (mice) of the same compound?
The value was 31.

Which results are given for `CCCC(CCC)(CCC)NCC` [Compound 33, N-ethyl-1,1-di-n-propyl-n-butylamine]?
Inhibition of reserpine-induced catatonia ([1]; 6 mg/kg): 2 (represents 50% inhibition of catatonia in comparison with the controls (namely a score of 5 per studied batch)); LD50 at 240 h (in vivo): 100 mg/kg; Index LD50/ED100 (mice): 16.5

For `CCCCC(C)(N)CC(C)C` (stereo not shown) [Compound 8, 1-Methyl-1-isobutyl-n-pentylamine], which “activity compared with amantadine (neuroleptic-induced catatonia)” value [2] is on record?
The value was “twice as active”.
